From article PMC12656566, “Toxicokinetic Characterization of MDM Hydantoin via Stable Metabolite DMH: Population Modeling for Predicting Dermal Formaldehyde Formation” (Toxics, 2025)
“Also recorded” adds a separate entry of the source. Like-named read-outs stand apart in the source and are kept apart here.

Assays:
[1] = Toxicokinetics after transdermal application of gel containing 2% MDMH or DMH (plasma, non-compartmental analysis); format: in vivo; settings: rats; for bioavailability: plasma, DMH, TD application of 2% DMH gel (10.7 mg/kg) vs IV, read-out: Absolute bioavailability
Experimental: An API 4000 LC-MS/MS system (Applied Biosystems/MDS Sciex, Foster City, CA, USA) coupled with an Agilent 1100 HPLC (Agilent Technologies, Santa Clara, CA, USA) was used for determination of MDMH and DMH in rat plasma. The analytes were separated on a Synergi Fusion-RP 80 Å (150 × 2.0 mm, i.d., 4 µm;) with a Security Guard™ Cartridge AJ0-7556 (Phenomenex, Torrance, CA, USA), and the column oven temperature was maintained at 30 °C. An isocratic solvent system of distilled water and methanol (80:20, v/v) was used with a runtime of 7 min. The injection volume was 10 µL, and the flow rate was maintained at 0.2 mL/min.
For plasma sample preparation, formic acid was immediately added to blood samples upon collection to achieve a final concentration of 0.5% to prevent potential enzymatic degradation of MDMH, and all sample preparation procedures were conducted at ≤4 °C to minimize temperature-dependent decomposition of the analytes. For analysis, 50 μL of internal standard solution and 100 μL of methanol containing 0.5% formic acid (as precipitating solvent) were added to 50 μL of plasma, followed by vortex-mixing for 2 min. After centrifugation at 21,206× g for 10 min, 40 μL of supernatant was mixed with 160 μL of 0.5% formic acid in distilled water, and 10 μL was injected into the LC-MS/MS system.
All animal care and experiments were conducted to evaluate the toxicokinetics of MDMH and DMH according to the Guidelines for the Care and Use of Animal approved by the Ethics Committee for Treatment of Laboratory Animal at Daegu Catholic University (CUD-2019-020). To evaluate the toxicokinetics of MDMH and DMH in rats after intravenous injection (IV) or transdermal application (TD). Male Sprague-Dawley rats (9 weeks, body weight 260–310 g) (Hyochang Science Co., Daegu, Republic of Korea) were kept in plastic cages and fed regularly with water and feed. Rats were acclimated for a minimum of 1 week prior to the experiment under conditions keeping a 12 h light-dark cycle, a temperature of 23 ± 2 °C, and a relative humidity of 50 ± 10%. The rats were cannulated using polyethylene tubing (0.58 mm i.d., 0.96 mm o.d., Natsume, Tokyo, Japan) in the jugular vein after intraperitoneal injection at a dose of 0.9 mL/kg of Zoletil 50 (Virbac, Carros, France).
The transdermal application study was performed according to the “Organization for Economic Cooperation and Development guidelines for the in vivo skin absorption test”. Rats were anesthetized using inhaled isoflurane, and the back area of 6 × 6 cm^2 was removed using an electric clipper (808, Daito Electric Co., Osaka, Japan) 12 h before administration. The clipped skin of the rat was wiped with acetone without damaging the stratum corneum, and a resting period was allowed just before the study.
For TD application, a gel corresponding to approximately 5 mg/cm^2 was applied to an area of 5 × 5 cm^2 among the depilated areas. The doses of MDMH and DMH for the transdermal application study were 10.9 and 10.7 mg/kg on average, respectively. Although the regulatory limit for MDMH in cosmetics is 0.2%, a higher concentration (2%) was employed to ensure adequate systemic exposure and plasma concentrations suitable for accurate toxicokinetic characterization of these rapidly metabolized compounds. To prevent loss of the compounds due to volatilization and grooming, the application on the back site was adhered with gauze and pads. Blood samples were collected via the jugular vein in the MDMH application group at 0, 30 min, and 1, 2, 3, 4, 5, 6, 7, 8, 10, 12, and 24 h (13 points/head), and in the DMH application group at 0, 30 min, and 1, 2, 3, 4, 6, 8, 10, 12, and 24 h (11 points/head). Plasma samples were harvested by centrifugation of obtained blood for 10 min at 4000× g, and stored at −20 °C until analysis.
The toxicokinetic parameters were calculated by standard non-compartmental analysis using the non-linear least squares regression program Phoenix™ WinNonlin® 6.1 (Pharsight, Cary, NC, USA). […]

[2] = Stability of MDMH and DMH in rat plasma and processed samples; format: in vitro ADME; settings: n = 5; for Processed sample stability: autosampler at 4 °C for 24 h; for Short-term stability / Freeze–thaw stability / Long-term stability: rat plasma; for Short-term stability: room temperature (25 °C) for 4 h; for Freeze–thaw stability: three freeze–thaw cycles; for Long-term stability: −20 °C for 4 weeks
Experimental: Short-term stability of MDMH and DMH in rat plasma was evaluated at room temperature for 4 h. Long-term stability was assessed following storage at −20 °C for 4 weeks. Freeze–thaw stability was determined after three freeze–thaw cycles. Additionally, processed sample stability was evaluated in the autosampler at 4 °C for 24 h. Stability was considered acceptable when the mean deviation from theoretical concentrations was within ±15%.
Stability studies were conducted using five replicates of low and high quality control samples under various analytical conditions, with results shown in Table 3. Short-term stability was evaluated at room temperature (25 °C) for 4 h, showing mean recoveries within acceptable limits for both analytes. Long-term stability was assessed following storage at −20 °C for 4 weeks, with recoveries remaining within ±15% of theoretical concentrations. Freeze–thaw stability was evaluated after three freeze–thaw cycles. Processed sample stability in the autosampler at 4 °C for 24 h was also within acceptable ranges.

[3] = male, Sprague-Dawley, rat, topical or ocular, DMH in plasma after TD application of gel containing 2% DMH (10.7 mg/kg), n = 5

| Compound | bioavailability ([1]; male, Sprague-Dawley, rat, topical or ocular, n = 5) [%] | bioavailability ([1]; male, Sprague-Dawley, rat, topical, n = 5) [%] | AUC(0-t) [1, 3] [ng·h/mL] | Cmax [1, 3] [ng/mL] | Tmax [1, 3] [h] | half-life [1, 3] [min] | AUC(0-inf) ([1]; male, Sprague-Dawley, rat, topical or ocular, DMH in plasma after TD application of gel containing 2% DMH (10.7 mg/kg), n = 5, read-out: AUCinfinity) [ng·h/mL] | Processed sample stability ([2]; High QC) [%] | Processed sample stability ([2]; Low QC) [%] | Short-term stability ([2]; High QC) [%] | Short-term stability ([2]; Low QC) [%] | Freeze–thaw stability ([2]; High QC) [%] | Freeze–thaw stability ([2]; Low QC) [%] | Long-term stability ([2]; High QC) [%] | Long-term stability ([2]; Low QC) [%] | parent compound plasma concentrations after transdermal application ([1]; MDMH in plasma after MDMH gel TD application, throughout the sampling period) | Fm to DMH (fraction metabolized) ([1]; ratio of DMH exposure after MDMH gel TD (10.9 mg/kg) to that after DMH gel TD) [%] |
| --- | --- | --- | --- | --- | --- | --- | --- | --- | --- | --- | --- | --- | --- | --- | --- | --- | --- |
| CC1(C)NC(=O)NC1=O [DMH, 5,5-dimethylhydantoin] | 101 ± 18 | 101 ± 18 | 40510 ± 50 | 6460 ± 1690 | 2 ± 1.73 | 322 ± 131 | 51500 ± 5530 | 113.2 ± 1.5 | 90.9 ± 6.9 | 101.0 ± 1.9 | 102.0 ± 1.4 | 93.2 ± 5.8 | 89.3 ± 3.8 | 112.0 ± 3.2 | 106.2 ± 4.3 |  |  |
| CC1(C)C(=O)NC(=O)N1CO [MDMH, 1-(Hydroxymethyl)-5,5-dimethylhydantoin] |  |  |  |  |  |  |  | 112.0 ± 3.5 | 98.9 ± 4.7 | 99.7 ± 1.3 | 102.6 ± 1.5 | 94.0 ± 1.8 | 90.1 ± 4.1 | 109.0 ± 3.9 | 110.4 ± 1.1 | below the quantification limit; also recorded: below quantification limits | 89.78 ± 24.15 |
